Source: patent publication EP3727588B1, “ACTIVATOR PEPTIDES OF THE ENZYME ADAM 10 AND RELATED USES IN THE TREATMENT OF ALZHEIMER'S DISEASE” (UNIVERSITA' DEGLI STUDI DI MILANO, priority 2017, dated 2019)
Where “and” joins values, the source holds several entries; their conditions need not be identical. Equal entries are not always repeated. Peptide text beside a SMILES is read from it.

Columns and labels:
[1] = blood-brain barrier crossing, anti-TAT immunohistochemistry on coronal brain sections; assay type: in vivo; conditions: C57BL/6 mice, intraperitoneal injection 3 nmoles/g, 24 hours
Protocol: For the immunohistochemistry analyses, mice treated with the peptide were anaesthetized deeply and subjected to transcardial perfusion with 4% paraformaldehyde (prepared in PBS, pH 7.2-7.4), through the use of a peristaltic pump. The fixing liquid was inserted into the blood circulation through the left ventricle and after 10 minutes the brain was isolated. The sample was then post-fixed for 1 hour and 30 minutes at 4°C, then washed with PBS 1X and placed o/n in a 30% sucrose solution. The following day the sample was washed again with PBS 1X cut with the vibratome obtaining coronal sections of 50µm. Then the sections were stained through free-floating immunofluorescence technique. The fluorescence images were acquired using the Zeiss Confocal LSM510 Meta system with 63x objective at a resolution of 1024x1024 pixels. […]
The coronal sections were incubated with a specific antibody for the identification of the MAP2 neurons, and an antibody able to recognize the TAT sequence of HIV-1 present in the CPPs. As shown by the arrows in Figure 6, the presence of a specific signal of the anti-TAT antibody can be identified, which can only be detected in the coronal sections of brain of animals treated with CPPs. […] In the brain of animals only treated with saline solution (Figure 6, panel A), such signal cannot be detected.

[2] = blood count and platelet count after 14 days' treatment; assay type: in vivo, mice; parameters: key to Aggregate s: +, ++, +++ considering the presence of platelet aggregates detected in the blood smear that make the analysis difficult; +, ++, +++ considering the presence of platelet aggregates detected in the blood smear that make the analysis difficult; +, ++, +++ considering the presence of platelet aggregates detected in the blood smear that make the analysis difficult; key to Estimate Plt: A= appropriate platelet estimate
Protocol: (§1) C57/BL6 adult mice were treated for 14 days with daily intraperitoneal injection of saline solution or peptides at a dose of 3 nmol/g (6-10 animals per experimental group). The animals were maintained in an enclosure at 25 ± 2 °C with an alternating light/dark cycle of 12 hours and had free access to water and food in the form of pellets (standard diet).
(§2) The blood, collected through cardiac puncture, was analysed with a laser counter (ADVIA 120, Siemens) using specific software for the murine species. From each sample a blood smear was prepared, stained with the May Grünwald-Giemsa method, and used for the morphological analysis of the leukocytes, the red blood cells and the platelet estimate. After the automatic counting of the cells and the preparation of the smear, all the samples were centrifuged and the plasma was transferred into separate test tubes. The analysis of the plasma samples was performed through automatic spectrophotometer (ILAB-300, Instrumentation Laboratory). All the results were compared with the values provided by the company Charles River for mice of the same strain and age.
The range values are provided by Charles River for C57BL mice aged between 56-70 days, whose blood was collected by cardiac puncture after euthanasia.

[3] = leukogram (white blood cell count) after 14 days' treatment; assay type: in vivo, mice
Protocol: as §1, §2
Except for the basophils and eosinophils, the total count and white blood cell (WBC) differential is lower with respect to the range values in all the animals treated. However, we noticed that the reference range values provided by the company Charles River are particularly high with respect to other values provided for other control groups and in other scientific articles in which the same animal strain is analysed. Justification for these differences found is provided by the pre-analytical factors used by Charles River in determining the different reference ranges (such as the method used, the type of sampling used, etc.). Despite this, the analyses of the data performed both individually and by examining the mean and median values in the different groups, show some differences in the values referring to mice treated with the active peptide with respect to the control mice (Table 2).
The following Table 2 illustrates the results of the white blood cell count. The reference values are provided by Charles River for C57BL mice of 56-70 days.

[4] = individual animal, 14 days, daily intraperitoneal 3 nmol/g

N=C(N)NCCC[C@H](NC(=O)CNC(=O)[C@@H](N)Cc1ccc(O)cc1)C(=O)N[C@@H](CCCCN)C(=O)N[C@@H](CCCCN)C(=O)N[C@@H](CCCNC(=N)N)C(=O)N[C@@H](CCCNC(=N)N)C(=O)N[C@@H](CCC(N)=O)C(=O)N[C@@H](CCCNC(=N)N)C(=O)N[C@@H](CCCNC(=N)N)C(=O)N[C@@H](CCCNC(=N)N)C(=O)NCC(=O)NCC(=O)N[C@@H](CO)C(=O)NCC(=O)N[C@@H](CCC(N)=O)C(=O)N1CCC[C@H]1C(=O)N1CCC[C@H]1C(=O)N[C@@H](CCCNC(=N)N)C(=O)N[C@@H](CCC(N)=O)C(=O)N[C@@H](CCCNC(=N)N)C(=O)N1CCC[C@H]1C(=O)N[C@@H](CCCNC(=N)N)C(=O)NCC(=O)O [PEP3] (H-YGRKKRRQRRRGGSGQPPRQRPRG-OH)
capacity to cross the blood-brain barrier (BBB) [1]: can cross the BBB and penetrate into the neuron cells | (Ht) ([2]; group mean): 46.2% | Hb ([2]; group mean): 11.8 g/dL | Mean Corpuscula r Hb (MCH) ([2]; group mean): 13.5 pg | Mean Corpuscula r Hb Conc. MCHC ([2]; group mean): 25.6% | Platelet count ([2]; group mean): 999000 µL⁻¹ | Red blood cells ([2]; group mean): 8.74e+06 µL⁻¹ | Red cell distribution width (RDW) ([2]; group mean): 19.5% | Vol. Mean Corp. Vol. (MCV) ([2]; group mean): 52.9 fL | (Ht) ([2]; group median): -46.9% | Hb ([2]; group median): -11.9 g/dL | Mean Corpuscula r Hb Conc. MCHC ([2]; group median): -25.8% | Platelet count ([2]; group median): -1.082e+06 µL⁻¹ | Red blood cells ([2]; group median): -8.8e+06 µL⁻¹ | Red cell distribution width (RDW) ([2]; group median): -19.7% | Vol. Mean Corp. Vol. (MCV) ([2]; group median): -53.1 fL | Estimate Plt ([2]; individual animal, blood smear, first part of cell): A | Aggregate s ([2]; individual animal, blood smear, second part of cell): +++ | (Ht) [2, 4]: 41.5% and 47.4% and 48.5% and 48% and 46.3% and 45.7% | Hb [2, 4]: 10.9 g/dL and 11.7 g/dL and 12.5 g/dL and 11.9 g/dL (3×) | Mean Corpuscula r Hb (MCH) [2, 4]: 13.4 Pg (2×) and 13.8 Pg and 13.3 Pg and 13.5 Pg and 13.6 Pg | Mean Corpuscula r Hb Conc. MCHC [2, 4]: 26.3% and 24.7% and 25.8% and 24.8% and 25.7% and 26% | Platelet count [2, 4]: 861000 µL⁻¹ and 711000 µL⁻¹ and 1.333e+06 µL⁻¹ and 391000 µL⁻¹ and 1.302e+06 µL⁻¹ and 1.394e+06 µL⁻¹ | Red blood cells [2, 4]: 8.14e+06 µL⁻¹ and 8.75e+06 µL⁻¹ and 9.04e+06 µL⁻¹ and 8.94e+06 µL⁻¹ and 8.84e+06 µL⁻¹ and 8.72e+06 µL⁻¹ | Red cell distribution width (RDW) [2, 4]: 18.7% and 19.3% and 19.9% (2×) and 19.7% (2×) | Vol. Mean Corp. Vol. (MCV) [2, 4]: 51 fL and 54.2 fL and 53.7 fL (2×) and 52.4 fL (2×) | immune / allergic reactions inferred from leukogram ([3]; 14 days' treatment, said not biologically significant): leads to the development of specific immunity and to the possibility of developing possible allergic/hypergic reactions | Basophils ([3]; group mean): 10 µL⁻¹ | Eosinophils ([3]; group mean): 90 µL⁻¹ | Lymphocytes ([3]; group mean): 4460 µL⁻¹ | Monocytes ([3]; group mean): 200 µL⁻¹ | Neutrophils ([3]; group mean): 530 µL⁻¹ | White blood cells ([3]; group mean): 5290 µL⁻¹ | Basophils ([3]; group median): 0 µL⁻¹ | Eosinophils ([3]; group median): (-0.08). x10^3/µL | Lymphocytes ([3]; group median): (-4.32). x10^3/µL | Monocytes ([3]; group median): (-0.23). x10^3/µL | Neutrophils ([3]; group median): (-0.54). x10^3/µL | White blood cells ([3]; group median): (-5.21). x10^3/µL | Basophils [3, 4]: 0 µL⁻¹ and 40 µL⁻¹ | Eosinophils [3, 4]: 140 µL⁻¹ and 60 µL⁻¹ and 90 µL⁻¹ and 40 µL⁻¹ and 120 µL⁻¹ and 70 µL⁻¹ | Lymphocytes [3, 4]: 5740 µL⁻¹ and 2650 µL⁻¹ and 3820 µL⁻¹ and 3720 µL⁻¹ and 4810 µL⁻¹ and 6010 µL⁻¹ | Monocytes [3, 4]: 270 µL⁻¹ and 60 µL⁻¹ and 180 µL⁻¹ and 130 µL⁻¹ and 290 µL⁻¹ and 280 µL⁻¹ | Neutrophils [3, 4]: 680 µL⁻¹ and 340 µL⁻¹ and 460 µL⁻¹ and 440 µL⁻¹ and 650 µL⁻¹ and 630 µL⁻¹ | White blood cells [3, 4]: 6830 µL⁻¹ and 3120 µL⁻¹ and 4550 µL⁻¹ and 4380 µL⁻¹ and 5870 µL⁻¹ and 6990 µL⁻¹
